Reference: the OPERA property sets (Mansouri et al. 2018)
Peptide text beside a SMILES is read from it.

Row | Structure (SMILES) | logP
1 | NNC(=O)c1ccc(I)cc1 | 1.55
2 | OCCCOc1cccc(CN2CCCCC2)c1 | 2.78
3 | CCCC(N)=O | -0.21
4 | CCC(Cl)(CC)C(=O)NC(N)=O | 1.4
5 | Cc1[nH]cnc1CSCCNc1cccc(=O)[nH]1 | 0.79
6 | COc1cccc(C(=O)O)c1O | 1.94
7 | N#CCc1ccc([N+](=O)[O-])cc1 | 1.37
8 | Cc1ccccc1Cl | 3.42
9 | C=CC(=O)OCC | 1.32
10 | C=C1C(=O)OC2CC(C)C3C=CC(=O)C3(C)C(O)C12 (stereo not drawn) | 0.36
11 | CC(=O)Nc1cccc2ncccc12 | 0.71
12 | C[C@]12C[C@H](O)[C@H]3[C@@H](CCC4=CC(=O)CC[C@@]43C)[C@@H]1CC[C@@H]2C(=O)CO | 1.94
13 | NCCO | -1.31
14 | Nc1cccc([N+](=O)[O-])c1 | 1.37
15 | Cc1ccc2c(c1)C(=O)C=CC2=O | 2.1
16 | Nc1nc(N)nc(-c2ccc([N+](=O)[O-])cc2)n1 | 1.6
17 | CCSC | 1.54
18 | CCOP(=S)(OCC)Oc1ccc(SC)cc1C | 4.16
19 | CNc1c(NCCSCc2nc[nH]c2C)c(=O)c1=O | -0.08
20 | CCOC(=O)c1cc(O)c(O)c(O)c1 | 1.3
21 | NS(=O)(=O)c1cc2c(cc1C(F)(F)F)NCNS2(=O)=O | 0.36

Row | Structure (SMILES) | logP
22 | ONc1ccccc1 | 0.79
23 | O=C(O)COc1ccc(Cl)cc1Cl | 2.81
24 | CCCOP(=O)(OCCC)OCCC | 1.87
25 | Nc1ccc(C(=O)Oc2cccc(Cl)c2)c(O)c1 | 3.9
26 | CNC(=O)Oc1ccccc1I | 1.94
27 | CCCCS | 2.28
28 | CC(=O)c1cccc([N+](=O)[O-])c1 | 1.42
29 | CN(c1ccccc1)c1ccccc1 | 3.9
30 | NC(=O)c1cccc(C(N)=O)c1 | -0.21
31 | CC1=NOC(=O)C1=NNc1ccccc1Cl | 2.6
32 | COc1cc(CCO)ccc1O | 0.47
33 | O=[N+]([O-])c1cc(Cl)c(Cl)cc1Cl | 3.48
34 | CN(C)c1ccc2c(c1)C(=O)N(S(C)(=O)=O)C2=O | 1.65
35 | COc1ccc(CO)cc1 | 1.1
36 | CCN(CC)N=O | 0.48
37 | CCOc1ccc(OC(=O)NC)cc1 | 1.63
38 | ClC(Cl)C(c1ccccc1)c1ccccc1 | 4.51
39 | CC(=O)N[C@H](C(=O)N[C@@H](Cc1ccccc1)C(=O)N[C@@H](C)C(N)=O)C(C)C (Ac-Val-Phe-Ala-NH2) | 0.06
40 | CC(C)C(Cl)C(=O)NC(N)=O (stereo not drawn) | 1
41 | Ic1ccc2ccccc2n1 | 3.04
42 | Cc1cccc(N2C(=O)CCC2=O)c1 | 0.57

Row | Structure (SMILES) | logP
43 | COCCOC(=O)c1ccccc1 | 1.78
44 | ClCc1ccc(Cl)cc1Cl | 3.82
45 | c1ccc(Cn2cnnc2)cc1 | 0.74
46 | CCCSCS(=O)CC(CO)NC(=O)C=Cc1c(C)[nH]c(=O)[nH]c1=O (stereo not drawn) | -0.67
47 | CCCCCc1ccccc1 | 4.9
48 | CNC(=O)Oc1cc(C)ccc1C | 2.03
49 | O=C1C=C(N2CCCC2)C(=O)c2ccccc21 | 2.89
50 | FCCCc1ccccc1 | 2.95
51 | C=CCC1(CC)C(=O)NC(=O)N(C)C1=O (stereo not drawn) | 1.35
52 | c1cnc2ccc3ncccc3c2c1 | 2.05
53 | CC(=O)c1ccc(C(C)=O)cc1 | 1.34
54 | COc1cc2c(c(OC)c1OC)-c1ccc(O)c(=O)cc1C(NC(C)=O)CC2 (stereo not drawn) | 1.2
55 | CN(C)CCCc1ccccc1 | 2.73
56 | Cn1cccc1 | 1.21
57 | C=C(C)C(=O)OCCCC | 2.88
58 | CNS(=O)(=O)c1ccc(S(I)=C(N(C)C)N(C)C)cc1 (stereo not drawn) | -1.4
59 | CCCCC(=O)O[C@]1(C(=O)CO)CC[C@H]2[C@@H]3CCC4=CC(=O)CC[C@]4(C)[C@H]3[C@@H](O)C[C@@]21C | 3.79
60 | O=C(O)c1c(O)cccc1O | 2.2
61 | CC(=O)N[C@@H](CCC(N)=O)C(=O)N[C@@H](Cc1ccccc1)C(N)=O (Ac-Gln-Phe-NH2) | -1.14
62 | Nc1nccc(=O)[nH]1 | -0.99
63 | Clc1ccc2nccnc2c1 | 2.1

Row | Structure (SMILES) | logP
64 | O=C(COC(=O)c1ccccc1)NC1CCCCC1 | 2.81
65 | COC1=C(N2CC2)C(=O)C(OC)=C(N2CC2)C1=O | 0.17
66 | Brc1ccc2ncccc2c1 | 2.83
67 | ICCCI | 3.02
68 | NS(=O)(=O)c1ccc([N+](=O)[O-])c(C(F)(F)F)c1 | 1.73
69 | Clc1cccc(-c2cccc(Cl)c2Cl)c1 | 5.57
70 | CC(=O)c1ccc(N2CCCCC2)cc1 | 3.13
71 | Oc1c(Br)cc(Br)cc1Br | 4.13
72 | NCc1ccncc1 | -0.38
73 | C=CCOc1noc2c1CNCC2 | 0.56
74 | CCC(=O)OC1(C(=O)CCl)C(C)CC2C3CCC4=CC(=O)C=CC4(C)C3C(=O)CC21C (stereo not drawn) | 3.3
75 | CCn1cnc2c(NC(C)=O)ncnc21 | -0.41
76 | CN(C)C(N(C)C)=S(I)c1ccccc1C(=O)O (stereo not drawn) | -1.4
77 | C=CCO | 0.17
78 | Cc1ccc(O)c([N+](=O)[O-])c1 | 2.37
79 | CCCCCCCCNC(=O)c1[nH]nc(C)c1[N+](=O)[O-] | 3.48
80 | CNC(=S)NNc1ccccc1 | 1.17
81 | CON(C)C(=O)Nc1ccccc1 | 1.29
82 | CCCCn1nnc2ccccc21 | 2.57
83 | O=C1OCc2ccccc21 | 0.8
